Assay [1] deals with T1, human norepinephrine transporter (Homo sapiens, UniProt P23975).
T1 construct: host or cells: HEK-293
The assay can be described thus: hNET receptor binding ([125I]-RTI-55 radioligand binding). The settings on record: membranes of HEK-293 cells transfected with human norepinephrine transporter, IC50 converted to Ki by Cheng-Prusoff, read-out: hNET (Ki). Put shortly:
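Membranes from HEK-293 cells transfected with human NET. Nonspecific binding defined with 10 μM desipramine, duplicates. IC50 by nonlinear regression, converted to Ki with Cheng-Prusoff.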

The target in assay [2] is T2, human seritonin transporter (Homo sapiens, UniProt P31645).
T2 construct: host or cells: HEK-293
T2 sequence (P31645 whole entry): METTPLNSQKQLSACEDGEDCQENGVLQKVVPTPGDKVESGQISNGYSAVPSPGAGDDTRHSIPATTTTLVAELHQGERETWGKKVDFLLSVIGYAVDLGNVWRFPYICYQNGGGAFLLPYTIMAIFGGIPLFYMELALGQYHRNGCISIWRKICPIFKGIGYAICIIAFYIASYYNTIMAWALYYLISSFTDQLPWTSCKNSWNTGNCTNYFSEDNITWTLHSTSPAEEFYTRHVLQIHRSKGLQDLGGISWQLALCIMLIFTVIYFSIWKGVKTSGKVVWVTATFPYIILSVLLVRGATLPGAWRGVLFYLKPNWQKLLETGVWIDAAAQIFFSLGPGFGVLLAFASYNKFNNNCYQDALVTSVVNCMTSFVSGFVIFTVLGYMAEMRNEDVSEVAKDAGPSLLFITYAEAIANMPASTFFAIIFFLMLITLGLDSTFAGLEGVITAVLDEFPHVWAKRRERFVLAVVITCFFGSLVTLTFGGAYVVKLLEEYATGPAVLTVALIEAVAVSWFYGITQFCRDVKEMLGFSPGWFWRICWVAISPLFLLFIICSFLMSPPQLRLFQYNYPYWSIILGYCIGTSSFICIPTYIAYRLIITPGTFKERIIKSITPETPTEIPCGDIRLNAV
The assay can be described thus: hSERT receptor binding ([125I]-RTI-55 radioligand binding). The settings on record: membranes of HEK-293 cells transfected with human seritonin transporter, IC50 converted to Ki by Cheng-Prusoff, read-out: SERT (Ki).

pKi: −log10 of the molar value.

T1 sequence (P23975 whole entry): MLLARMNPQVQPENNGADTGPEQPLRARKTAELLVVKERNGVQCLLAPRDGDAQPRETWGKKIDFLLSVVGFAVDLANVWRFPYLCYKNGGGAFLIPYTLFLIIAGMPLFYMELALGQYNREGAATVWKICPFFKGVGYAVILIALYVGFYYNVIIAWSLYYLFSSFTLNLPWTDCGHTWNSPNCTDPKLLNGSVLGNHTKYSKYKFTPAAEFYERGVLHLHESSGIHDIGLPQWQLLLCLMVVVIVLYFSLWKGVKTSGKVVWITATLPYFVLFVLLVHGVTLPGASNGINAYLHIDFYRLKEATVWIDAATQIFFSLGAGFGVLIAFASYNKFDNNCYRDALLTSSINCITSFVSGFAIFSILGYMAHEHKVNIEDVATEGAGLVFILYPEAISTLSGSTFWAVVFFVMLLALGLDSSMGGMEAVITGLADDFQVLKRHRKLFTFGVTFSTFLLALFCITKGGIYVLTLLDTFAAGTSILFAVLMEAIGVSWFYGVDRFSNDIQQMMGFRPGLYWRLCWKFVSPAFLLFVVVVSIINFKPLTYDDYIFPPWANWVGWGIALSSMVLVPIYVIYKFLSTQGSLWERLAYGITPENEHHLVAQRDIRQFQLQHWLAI

With `Brc1ccccc1O[C@@H](c1ccccn1)[C@@H]1CNCCO1` [Example 155, (2S)-2-[(S)-(2-bromophenoxy)(pyridin-2-yl)methyl]morpholine], the pKi in assay [1] was 8.30; in assay [2] it was 6.11.
The matching figures for `FCc1ccccc1OC(c1ccccc1)[C@@H]1CNCCO1` (stereo partly drawn) [Example 156, (2S)-2-[[2-(fluoromethyl)phenoxy](phenyl)methyl]morpholine]: 7.85 and 6.10.
In the case of `CCOc1cccc(F)c1OC(c1ccccc1)[C@@H]1CNCCO1` (stereo partly drawn) [Example 157, (2S)-2-[(2-ethoxy-6-fluorophenoxy)(phenyl)methyl]morpholine], the values for the pKi in assay [1] and in assay [2] were 8.40 and 5.59, respectively.
On the same counts, the results for `COc1cccc(F)c1O[C@@H](c1ccccn1)[C@@H]1CNCCO1` [Example 158, (2S)-2-[(S)-(2-fluoro-6-methoxyphenoxy)(pyridin-2-yl)methyl]morpholine] are 8.22 and at most 5.00.
The matching figures for `CCOc1cccc(F)c1O[C@@H](c1ccccn1)[C@@H]1CNCCO1` [Example 159, (2S)-2-[(S)-(2-ethoxy-6-fluorophenoxy)(pyridin-2-yl)methyl]morpholine]: 8.15 and 5.13.
The matching figures for `Fc1cccc(F)c1O[C@@H](c1ccccn1)[C@@H]1CNCCO1` [Example 160, (2S)-2-[(S)-(2,6-difluorophenoxy)(pyridin-2-yl)methyl]morpholine]: 8.22 and 5.19.
As to `FCCCOc1ccccc1O[C@@H](c1ccccc1)[C@@H]1CNCCO1` [Example 161, (2S)-2-[(S)-[2-(3-fluoropropoxy)phenoxy](phenyl)methyl]morpholine], the pKi in assay [1] was 8.30; in assay [2], 5.41.
Turning to `CCOc1ncccc1O[C@@H](CC1CCCCC1)[C@@H]1CNCCO1` [Example 162, (2S)-2-{(1S)-2-cyclohexyl-1-[(2-ethoxypyridin-3-yl)oxy]ethyl}morpholine], the pKi is 8.30 in assay [1] and 6.58 in assay [2].
On the same counts, the results for `Fc1cccc(F)c1OC(c1cccc2c1OCC2)[C@@H]1CNCCO1` (stereo partly drawn) [Example 163, (2S)-2-[(2,6-difluorophenoxy)(2,3-dihydro-1-benzofuran-7-yl)methyl]morpholine] are 7.89 and 6.35.
On the same counts, the results for `Fc1ccc(C2CC2)c(O[C@@H](c2ccccn2)[C@@H]2CNCCO2)c1` [Example 164, (2S)-2-[(S)-(2-cyclopropyl-5-fluorophenoxy)(pyridin-2-yl)methyl]morpholine] are 7.89 and 5.51.
On to `CC(C)Oc1cccc(F)c1O[C@@H](c1ccccc1)[C@@H]1CNCCO1` [Example 165, (2S)-2-[(S)-(2-fluoro-6-isopropoxyphenoxy)(phenyl)methyl]morpholine], for which the values for the pKi in assay [1] and in assay [2] were 8.40 and 6.45, respectively.
Turning to `COc1ncccc1O[C@@H](c1ccccc1)[C@@H]1CNCCO1` [Example 166, (2S)-2-[(S)-[(2-methoxypyridin-3-yl)oxy](phenyl)methyl]morpholine], the pKi was 8.10 in assay [1] and 5.87 in assay [2].
`COc1ccc(F)cc1OC(c1ccccc1)[C@@H]1CNCCO1` (stereo partly drawn) [Example 167, (2S)-2-[(5-fluoro-2-methoxyphenoxy)(phenyl)methyl]morpholine]: the pKi in assay [1] was 8.10; in assay [2], 5.59.
On the same counts, the results for `COc1c(F)cccc1OC(c1ccccc1)[C@@H]1CNCCO1` (stereo partly drawn) [Example 168, (2S)-2-[(3-fluoro-2-methoxyphenoxy)(phenyl)methyl]morpholine] are 8.30 and 6.10.
Turning to `CCOc1ccc(F)cc1OC(c1ccccc1)[C@@H]1CNCCO1` (stereo partly drawn) [Example 169, (2S)-2-[(2-ethoxy-5-fluorophenoxy)(phenyl)methyl]morpholine], the pKi is 8.22 in assay [1] and 5.53 in assay [2].
As for `CCOc1c(F)cccc1OC(c1ccccc1)[C@@H]1CNCCO1` (stereo partly drawn) [Example 170, (2S)-2-[(2-ethoxy-3-fluorophenoxy)(phenyl)methyl]morpholine], the pKi in assay [1] was 7.96; in assay [2] it was 5.31.
The matching figures for `CCCOc1cccc(F)c1O[C@@H](c1ccccc1)[C@@H]1CNCCO1` [Example 171, (2S)-2-[(S)-(2-fluoro-6-propoxyphenoxy)(phenyl)methyl]morpholine]: 7.70 and 5.98.
`Cc1coc(C(Oc2c(F)cccc2F)[C@@H]2CNCCO2)n1` (stereo partly drawn) [Example 173, (2S)-2-[(2,6-difluorophenoxy)(4-methyl-1,3-oxazol-2-yl)methyl]morpholine]: the values for the pKi in assay [1] and in assay [2] were 7.92 and at most 5.00, respectively.
Consider `Cc1coc(C(Oc2ccccc2OC(F)(F)F)[C@@H]2CNCCO2)n1` (stereo partly drawn) [Example 174, (2S)-2-{(4-methyl-1,3-oxazol-2-yl)[2-(trifluoromethoxy)phenoxy]methyl}morpholine], for which the pKi in assay [1] was 7.74; in assay [2] it was 5.12.
The matching figures for `Fc1cccc(F)c1OC(c1nccs1)[C@@H]1CNCCO1` (stereo partly drawn) [Example 175, (2S)-2-[(2,6-difluorophenoxy)(1,3-thiazol-2-yl)methyl]morpholine]: 7.82 and 5.12.
Turning to `CCCC[C@H](Oc1cccnc1OCC)[C@@H]1CNCCO1` [Example 176, (2S)-2-{(1S)-1-[(2-ethoxypyridin-3-yl)oxy]pentyl}morpholine], the pKi in assay [1] was 8.30; in assay [2] it was 5.47.
For the molecule `Cc1coc(C(Oc2ccccc2Br)[C@@H]2CNCCO2)n1` (stereo partly drawn) [Example 177, (2S)-2-[(2-bromophenoxy)(4-methyl-1,3-oxazol-2-yl)methyl]morpholine], the pKi was 8.15 in assay [1] and 5.71 in assay [2].
The matching figures for `Cc1cccc(F)c1O[C@@H](c1ccccc1)[C@@H]1CNCCO1` [Example 178, (2S)-2-[(S)-(2-fluoro-6-methylphenoxy)(phenyl)methyl]morpholine]: 8.52 and 7.21.
On the same counts, the results for `CC(C)c1ncccc1O[C@@H](c1ccccc1)[C@@H]1CNCCO1` [Example 179, (2S)-2-[(S)-[(2-isopropylpyridin-3-yl)oxy](phenyl)methyl]morpholine] are 7.74 and 5.59.
`CCOc1ccccc1OC(c1nccs1)[C@@H]1CNCCO1` (stereo partly drawn) [Example 180, (2S)-2-[(2-ethoxyphenoxy)(1,3-thiazol-2-yl)methyl]morpholine]: the pKi is 8.05 in assay [1] and 5.08 in assay [2].
On the same counts, the results for `CCOc1ccccc1O[C@H](c1ccccn1)[C@H]1CNCCO1` [Example 181, (2R)-2-[(R)-(2-ethoxyphenoxy)(pyridin-2-yl)methyl]morpholine] are 6.65 and 5.31.
The matching figures for `CC(C)Cc1ncccc1O[C@@H](c1ccccc1)[C@@H]1CNCCO1` [Example 182, (2S)-2-[(S)-[(2-isobutylpyridin-3-yl)oxy](phenyl)methyl]morpholine]: 7.51 and 5.15.
The matching figures for `CC(C)c1cccc(F)c1O[C@@H](c1ccccc1)[C@@H]1CNCCO1` [Example 183, (2S)-2-[(S)-(2-fluoro-6-isopropylphenoxy)(phenyl)methyl]morpholine]: 8.15 and 5.27.

The pKi is −log10 of the Ki, conventionally taken in molar units.
